Data: ChEMBL document CHEMBL1149398, “Pyrrolizidine esters and amides as 5-HT4 receptor agonists and antagonists” (J Med Chem, 2006)

Legend:
[1] = target: 5-hydroxytryptamine receptor 4 (Cavia porcellus, UniProt O70528); experiment: Displacement of [3H]GR-113808 from 5HT4 receptor in guinea pig striatum
[2] = target: Beta-2 adrenergic receptor (Homo sapiens, UniProt P07550); experiment: Binding affinity to adrenergic beta-2 receptor
[3] = target: T1, Serotonin 3 (5-HT3) receptor (Rattus norvegicus, UniProt P35563+Q9JJ16); experiment: Displacement of [3H]GR65630 from 5HT3 receptor in brain cortex from Wistar rat; format: tissue-based
T1 sequence (P35563 whole entry): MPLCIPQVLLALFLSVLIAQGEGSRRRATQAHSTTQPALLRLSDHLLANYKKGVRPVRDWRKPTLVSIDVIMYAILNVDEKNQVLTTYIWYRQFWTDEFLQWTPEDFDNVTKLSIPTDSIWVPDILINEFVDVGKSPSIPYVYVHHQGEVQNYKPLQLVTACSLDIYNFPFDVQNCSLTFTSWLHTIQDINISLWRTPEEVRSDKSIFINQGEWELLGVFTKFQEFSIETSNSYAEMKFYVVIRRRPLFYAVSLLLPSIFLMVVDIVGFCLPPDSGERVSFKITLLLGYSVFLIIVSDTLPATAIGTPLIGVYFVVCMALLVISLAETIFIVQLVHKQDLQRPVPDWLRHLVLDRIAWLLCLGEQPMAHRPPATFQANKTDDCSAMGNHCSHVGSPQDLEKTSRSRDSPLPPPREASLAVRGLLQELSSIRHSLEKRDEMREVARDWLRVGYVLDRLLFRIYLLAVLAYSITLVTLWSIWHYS
T1 sequence (Q9JJ16 whole entry): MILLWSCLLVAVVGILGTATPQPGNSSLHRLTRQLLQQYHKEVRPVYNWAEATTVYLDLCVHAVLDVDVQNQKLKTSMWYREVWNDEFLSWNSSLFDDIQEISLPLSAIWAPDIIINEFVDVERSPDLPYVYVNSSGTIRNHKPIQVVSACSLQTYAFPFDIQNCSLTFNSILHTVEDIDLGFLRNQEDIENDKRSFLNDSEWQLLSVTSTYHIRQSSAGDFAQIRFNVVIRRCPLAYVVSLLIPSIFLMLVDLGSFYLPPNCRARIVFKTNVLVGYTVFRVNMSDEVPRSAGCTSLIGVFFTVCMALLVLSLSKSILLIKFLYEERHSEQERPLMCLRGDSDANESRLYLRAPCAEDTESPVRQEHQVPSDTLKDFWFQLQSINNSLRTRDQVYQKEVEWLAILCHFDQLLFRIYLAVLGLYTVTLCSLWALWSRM

[4] = target: T2, 5-hydroxytryptamine receptor 4 (Rattus norvegicus, UniProt Q62758); experiment: Antagonism at 5HT4 receptor in rat tunica muscularis mucosa; format: functional, tissue-based; conditions: read-out: pA2 (converted)
T2 sequence (Q62758 whole entry): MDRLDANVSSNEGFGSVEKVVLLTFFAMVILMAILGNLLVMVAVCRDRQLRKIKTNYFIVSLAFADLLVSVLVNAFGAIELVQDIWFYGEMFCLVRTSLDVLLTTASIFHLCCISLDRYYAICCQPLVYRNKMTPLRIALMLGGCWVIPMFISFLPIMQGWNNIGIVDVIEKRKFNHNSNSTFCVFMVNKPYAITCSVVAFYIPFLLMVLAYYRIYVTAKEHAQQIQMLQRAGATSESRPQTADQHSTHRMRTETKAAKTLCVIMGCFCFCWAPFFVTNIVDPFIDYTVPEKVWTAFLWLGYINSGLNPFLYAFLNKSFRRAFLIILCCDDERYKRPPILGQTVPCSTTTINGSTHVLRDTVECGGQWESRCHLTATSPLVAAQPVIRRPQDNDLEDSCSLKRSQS

[5] = target: T2, 5-hydroxytryptamine receptor 4; experiment: Agonism at 5HT4 receptor in rat tunica muscularis mucosa; format: functional
[6] = tested on: Salmonella typhi; experiment: Mutagenic activity in a GLP study using Salmonella Typhimurium TA100 in presence of S9 fraction at 7.2-3600 ug/plate; format: toxicity, organism-based; conditions: salmonella enterica subsp. enterica […]
[7] = tested on: Salmonella typhi; experiment: Mutagenic activity in a GLP study using Salmonella Typhimurium TA1538 in presence of S9 fraction at 7.2-3600 ug/plate; format: toxicity, organism-based; conditions: salmonella enterica subsp. enterica […]
[8] = tested on: Canis familiaris; experiment: Effect on solid gastric emptying in iv dosed dog; format: functional; conditions: Canis lupus familiaris, Stomach
[9] = tested on: Salmonella typhi; experiment: Mutagenic activity in a GLP study using Salmonella Typhimurium TA97 in presence of S9 fraction at 7.2-3600 ug/plate; format: toxicity, organism-based; conditions: salmonella enterica subsp. enterica […]
[10] = tested on: Salmonella typhi; experiment: Mutagenic activity in a GLP study using Salmonella Typhimurium TA1535 in presence of S9 fraction at 7.2-3600 ug/plate; format: toxicity, organism-based; conditions: salmonella enterica subsp. enterica […]
[11] = target: T3, Serotonin 3 receptor (5HT3) (Mus musculus) (UniProt Q9JHJ5+P23979); experiment: Antagonism at 5HT3 receptor in mice by von Bezold-Jarisch reflex inhibition at 1 mg/kg, ip; format: functional, organism-based; parameters: dose 1 mg/kg
T3 sequence (P23979 whole entry, looked up): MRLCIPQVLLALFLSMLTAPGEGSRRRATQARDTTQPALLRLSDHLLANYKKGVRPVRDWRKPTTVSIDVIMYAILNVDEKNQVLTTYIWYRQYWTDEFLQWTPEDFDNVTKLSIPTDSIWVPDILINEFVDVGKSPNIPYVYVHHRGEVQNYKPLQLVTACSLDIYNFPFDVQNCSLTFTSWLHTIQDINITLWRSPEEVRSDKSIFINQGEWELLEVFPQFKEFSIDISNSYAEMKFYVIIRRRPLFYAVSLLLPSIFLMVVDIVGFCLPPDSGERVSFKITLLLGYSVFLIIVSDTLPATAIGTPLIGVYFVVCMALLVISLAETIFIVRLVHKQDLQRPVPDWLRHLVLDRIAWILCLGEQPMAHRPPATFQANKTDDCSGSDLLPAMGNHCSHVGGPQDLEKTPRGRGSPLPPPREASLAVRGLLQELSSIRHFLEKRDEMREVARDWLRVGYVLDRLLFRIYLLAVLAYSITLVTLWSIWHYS
T3 sequence (Q9JHJ5 whole entry, looked up): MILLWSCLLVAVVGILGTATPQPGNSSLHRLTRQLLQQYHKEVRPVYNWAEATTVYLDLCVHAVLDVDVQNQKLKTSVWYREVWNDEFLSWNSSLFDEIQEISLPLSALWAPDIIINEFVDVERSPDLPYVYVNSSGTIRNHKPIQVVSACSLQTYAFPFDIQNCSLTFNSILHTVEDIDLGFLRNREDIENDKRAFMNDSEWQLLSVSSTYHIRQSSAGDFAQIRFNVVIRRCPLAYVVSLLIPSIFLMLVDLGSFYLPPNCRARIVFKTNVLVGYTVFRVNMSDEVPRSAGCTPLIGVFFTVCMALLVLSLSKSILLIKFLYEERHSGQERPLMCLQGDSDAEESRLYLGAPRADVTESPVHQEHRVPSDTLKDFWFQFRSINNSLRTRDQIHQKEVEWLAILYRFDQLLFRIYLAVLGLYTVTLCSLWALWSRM

[12] = tested on: Canis familiaris; experiment: Contractile response of the antrum in iv dosed fasted dog; format: functional; conditions: Canis lupus familiaris
[13] = tested on: Salmonella typhi; experiment: Mutagenic activity in a GLP study using Salmonella Typhimurium TA98 in presence of S9 fraction at 7.2-3600 ug/plate; format: toxicity, organism-based; conditions: salmonella enterica subsp. enterica […]
[14] = target: T3, Serotonin 3 receptor (5HT3) (Mus musculus); experiment: Antagonism at 5HT3 receptor in mice by von Bezold-Jarisch reflex inhibition at 3 mg/kg, ip; format: functional, organism-based; parameters: dose 3 mg/kg
[15] = target: T3, Serotonin 3 receptor (5HT3) (Mus musculus); experiment: Antagonism at 5HT3 receptor in mice by von Bezold-Jarisch reflex inhibition at 10 mg/kg, ip; format: functional, organism-based; parameters: dose 10 mg/kg

Chain of Beta-2 adrenergic receptor (P07550 whole entry): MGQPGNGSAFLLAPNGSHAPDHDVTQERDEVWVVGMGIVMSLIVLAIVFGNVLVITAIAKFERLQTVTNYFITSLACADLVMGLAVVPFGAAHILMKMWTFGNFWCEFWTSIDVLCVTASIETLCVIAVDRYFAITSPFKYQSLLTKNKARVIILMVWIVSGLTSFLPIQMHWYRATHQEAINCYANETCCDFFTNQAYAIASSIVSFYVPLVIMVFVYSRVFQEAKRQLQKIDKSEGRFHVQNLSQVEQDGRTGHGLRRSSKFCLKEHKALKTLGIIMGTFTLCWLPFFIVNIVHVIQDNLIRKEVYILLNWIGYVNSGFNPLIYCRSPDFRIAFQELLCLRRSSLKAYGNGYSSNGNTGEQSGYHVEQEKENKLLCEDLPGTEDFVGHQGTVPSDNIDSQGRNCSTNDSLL
Chain of 5-hydroxytryptamine receptor 4 (Cavia porcellus, UniProt O70528) (O70528 whole entry): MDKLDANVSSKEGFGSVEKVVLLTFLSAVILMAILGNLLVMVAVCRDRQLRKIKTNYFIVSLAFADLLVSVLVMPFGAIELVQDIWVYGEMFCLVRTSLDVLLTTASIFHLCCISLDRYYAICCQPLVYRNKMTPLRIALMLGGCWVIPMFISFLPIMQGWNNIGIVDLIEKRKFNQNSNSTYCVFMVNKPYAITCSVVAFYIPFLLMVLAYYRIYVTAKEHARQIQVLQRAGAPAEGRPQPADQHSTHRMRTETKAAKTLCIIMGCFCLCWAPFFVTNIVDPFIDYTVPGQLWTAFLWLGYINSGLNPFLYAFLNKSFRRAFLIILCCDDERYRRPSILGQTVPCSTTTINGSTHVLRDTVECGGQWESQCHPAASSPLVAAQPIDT

Structure (SMILES)	Ki [1]	IC50 [2]	Ki [3]	Kb [4]	EC50 [5]	Activity [6]	Activity [7]	ED50 [8]	Activity [9]	Activity [10]	inhibition [11]	ED50 [12]	Activity [13]	inhibition [14]	inhibition [15]
O=C(OC[C@@H]1CCN2CCC[C@@H]12)c1c[nH]c2ccccc12	0.183 nM	> 10000 nM	5 nM	1.17 nM											
O=C(NC[C@@H]1CCN2CCC[C@@H]12)c1cc(Cl)cn2ccnc12	1.4 nM	> 10000 nM	259 nM	7.41 nM	> 10000 nM										
COc1cc(N)c(Cl)cc1C(=O)N[C@@H]1C2CC3CN(C2)CC31 (stereo partly drawn)	29 nM	> 10000 nM	1.2 nM												
COc1cc(N)c(Cl)cc1C(=O)NC[C@@H]1CCN2CCC[C@@H]12	5.2 nM	> 10000 nM			16.5 nM	Active	Active	1 µg/kg	Active	Active	7%	10 µg/kg	Active	57%	87%
Cn1nc(C(=O)OC[C@@H]2CCN3CCC[C@@H]23)c2ccccc21 (single isomer, unassigned)	0.4 nM	> 10000 nM	20 nM	2.75 nM											
O=C(OC[C@@H]1CCN2CCC[C@@H]12)c1[nH]nc2ccccc12 (single isomer, unassigned)	0.8 nM	> 10000 nM	135 nM	3.31 nM											
